According to patent publication US20160319277A1, “METHODS OF IMPROVED PROTEIN PRODUCTION USING MIRNAs AND SIRNAs” (THE JOHNS HOPKINS UNIVERSITY, priority 2015, published 2016):

Test system: HEK-CMV-Luc2-Hygro cells
Assay: High-throughput genome-wide siRNA screen and validation screen for luciferase expression
Format: cell-based, human
Settings: for per_cell / VIA: Table 3; for per_cell: per cell luciferase yield relative to negative control; for per_cell / VIA / Viable cell density (%) / per cell luciferase yield (%): primary screen, 72 h; for VIA: viable cell density as % of negative control; for Viable cell density (%) / per cell luciferase yield (%): Table 4, negative control = 100%; for Luciferase activity (%) / Per cell luciferase yield (%) / Viable cell number (%): Table 6, polyamine pathway gene siRNAs
How it was run: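 HEK cells with CMV-driven luciferase were reverse-transfected with 0.8 pmol siRNA per well (3 per gene) via RNAiMax and grown 72 h at 37 °C. Duplicate wells read for luciferase (ONE-Glo) and viability (CellTiter-Glo). Values given as % of plate negative-control median with MAD-based z-scores; hits with ≥2 siRNAs at z>3 retested using 3 new siRNAs.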

Row | Substance | Viable cell density (%) | per cell luciferase yield (%) | other results
1 | 52 (GGAAGAACGUCUUGCACAATT; chemistry not given here; listed as Homo sapiens) [compound 52] |  |  | per_cell: 183.1; VIA: 85.47
2 | 96 (ACACUCUUGUGGUCAAGAATT; chemistry not given here; listed as Homo sapiens) [compound 96] | 73.809 | 227.741 | 
3 | 129 (GCUAUUUCCAGCGAAUAUATT; chemistry not given here; listed as Homo sapiens) [compound 129] | 81.492 | 244.722 | 
4 | 183 (CAACAGAUCAGAGAACAAATT; chemistry not given here; listed as Homo sapiens) [compound 183] | 92.429 | 156.418 | 
5 | 106 (GCUCAUCGACAUCAAAGUUTT; chemistry not given here; listed as Homo sapiens) [compound 106] | 97.007 | 170.088 | 
6 | 58 (ACAGGUCUUUAUCAAAGCATT; chemistry not given here; listed as Homo sapiens) [compound 58] |  |  | per_cell: 3.426; VIA: 100.2
7 | 104 (GGCGAAUGCUCCUGACUAATT; chemistry not given here; listed as Homo sapiens) [compound 104] | 103.888 | 156.977 | 
8 | 151 (GAAACUGCAUGAGAAGACATT; chemistry not given here; listed as Homo sapiens) [compound 151] | 59.084 | 288.857 | 
9 | 216 (GGGAAUAGUCAGAGGGAUCTT; chemistry not given here; listed as Homo sapiens) [compound 216] |  |  | Luciferase activity (%): 92.8%; Per cell luciferase yield (%): 90.4%; Viable cell number (%): 102.7%
10 | 83 (GCGGAAAAGGUAUCCCUCATT; chemistry not given here; listed as Homo sapiens) [compound 83] |  |  | per_cell: 184.6; VIA: 80.17
11 | 116 (UGGUCUCAAUGACAGUAGATT; chemistry not given here; listed as Homo sapiens) [compound 116] | 53.645 | 370.824 | 
12 | 188 (GGAAGAACGUCUUGCACAATT; chemistry not given here; listed as Homo sapiens) [compound 188] | 85.471 | 183.071 | 
13 | 124 (GAAUAACCGUUGGUUUAAUTT; chemistry not given here; listed as Homo sapiens) [compound 124] | 65.083 | 292.710 | 
14 | 190 (CUGUGGAAAAGAUACCGUATT; chemistry not given here; listed as Homo sapiens) [compound 190] | 95.368 | 152.850 | 
15 | 68 (CAGGUAGUGUAAGCCCUCATT; chemistry not given here; listed as Homo sapiens) [compound 68] |  |  | per_cell: 303; VIA: 66.87
16 | 38 (GCAGUGGACAUAGAAGAGATT; chemistry not given here; listed as Homo sapiens) [compound 38] |  |  | per_cell: 140.7; VIA: 110.8
17 | 148 (CAGCCUCACCAAGCACAAATT; chemistry not given here; listed as Homo sapiens) [compound 148] | 85.866 | 167.413 | 
18 | 81 (GUUUCAUCUGGGUUCGCUATT; chemistry not given here; listed as Homo sapiens) [compound 81] |  |  | per_cell: 233.6; VIA: 62.66
19 | 134 (GAUCGUUUGAGAGAACAAATT; chemistry not given here; listed as Homo sapiens) [compound 134] | 77.107 | 210.336 | 
20 | 217 (ACAUCGUCCACUUCCAGUATT; chemistry not given here; listed as Homo sapiens) [compound 217] |  |  | Luciferase activity (%): 97.4%; Per cell luciferase yield (%): 101.1%; Viable cell number (%): 96.3%

Row | Substance | Viable cell density (%) | per cell luciferase yield (%) | other results
21 | 189 (GAACAAAAUAGACCUCUUATT; chemistry not given here; listed as Homo sapiens) [compound 189] | 101.897 | 162.677 | 
22 | 182 (CAGUUACUUUCAAAACUCUTT; chemistry not given here; listed as Homo sapiens) [compound 182] | 91.714 | 202.960 | 
23 | 168 (GCUUCCUCUUGGACCUCAATT; chemistry not given here; listed as Homo sapiens) [compound 168] | 78.156 | 185.175 | 
24 | 67 (GGAUGACGAGCUGAACUUUTT; chemistry not given here; listed as Homo sapiens) [compound 67] |  |  | per_cell: 140.1; VIA: 113.4
25 | 167 (CCUGGACAGUUUGAAGCAATT; chemistry not given here; listed as Homo sapiens) [compound 167] | 88.009 | 174.946 | 
26 | 221 (CCACGACCAGCUUAAAGAATT; chemistry not given here; listed as Homo sapiens) [compound 221] |  |  | Luciferase activity (%): 90.5%; Per cell luciferase yield (%): 94.5%; Viable cell number (%): 95.76%
27 | 197 (GACUCAGAGUAACAACGCATT; chemistry not given here; listed as Homo sapiens) [compound 197] | 95.471 | 162.372 | 
28 | 91 (CAGCAAACCUUUGACCAGATT; chemistry not given here; listed as Homo sapiens) [compound 91] |  |  | per_cell: 277.5; VIA: 55.4
29 | 137 (GAACCGUCGCUACAAGACATT; chemistry not given here; listed as Homo sapiens) [compound 137] | 88.616 | 212.905 | 
30 | 157 (GAACAGCUGGGAACCUUCATT; chemistry not given here; listed as Homo sapiens) [compound 157] | 60.645 | 254.007 | 
31 | 194 (CAUCAAGCCCUGUAAGUCUTT; chemistry not given here; listed as Homo sapiens) [compound 194] | 89.583 | 163.431 | 
32 | 215 (GCUAACUUAUUCUACUCCGTT; chemistry not given here; listed as Homo sapiens) [compound 215] |  |  | Luciferase activity (%): 171.1%; Per cell luciferase yield (%): 154.7%; Viable cell number (%): 110.6%
33 | 119 (CUGCCGCAACAAUAAGAAATT; chemistry not given here; listed as Homo sapiens) [compound 119] | 82.950 | 171.198 | 
34 | 175 (CAUUGGUGUUGACAAUCCATT; chemistry not given here; listed as Homo sapiens) [compound 175] | 85.046 | 189.850 | 
35 | 170 (CCAACAAGGAAGACGAAAATT; chemistry not given here; listed as Homo sapiens) [compound 170] | 267.320 | 284.062 | 
36 | 40 (CGAUGUUCGUGGACAUUCUTT; chemistry not given here; listed as Homo sapiens) [compound 40] |  |  | per_cell: 234.6; VIA: 80.01
37 | 69 (CCCUCCUACUAUUACCCGUTT; chemistry not given here; listed as Homo sapiens) [compound 69] |  |  | per_cell: 163; VIA: 96.87
38 | 107 (CCAUAUAUCCGAAUGACCATT; chemistry not given here; listed as Homo sapiens) [compound 107] | 63.879 | 256.443 | 
39 | 191 (GCCCACUAUUCUCAGCUCATT; chemistry not given here; listed as Homo sapiens) [compound 191] | 66.121 | 214.156 | 
40 | 71 (GAUUACUUCUUGACUAUCATT; chemistry not given here; listed as Homo sapiens) [compound 71] |  |  | per_cell: 150.8; VIA: 123.2
